Measurements published in ChEMBL document CHEMBL3885881, “DrugMatrix”.

Species: Rattus norvegicus
Test: DrugMatrix - Regimen: Daily Repeat
Type: toxicity, organism-based, Sprague-Dawley
Parameters: regimen Daily Repeat, gender Male, age 6-8 weeks
Conditions: in vivo, iv, vehicle 100 % SALINE; for ABSOLUTE BASOPHIL / ABSOLUTE EOSINOPHIL / ABSOLUTE LYMPHOCYTE / ABSOLUTE MONOCYTE / ABSOLUTE SEGMENTED NEUTROPHIL / BASOPHIL / EOSINOPHIL / ERYTHROCYTE COUNT / HEMATOCRIT / HEMOGLOBIN / LEUKOCYTE COUNT / LYMPHOCYTE / MEAN CORPUSCULAR HEMOGLOBIN / MEAN CORPUSCULAR HEMOGLOBIN CONCENTRATION / MEAN CORPUSCULAR VOLUME / MONOCYTE / NEUTROPHIL / NUCLEATED RED BLOOD CELLS / PLATELET COUNT: tissue Blood; for ALANINE AMINOTRANSFERASE / ALBUMIN / ALKALINE PHOSPHATASE / ASPARTATE AMINOTRANSFERASE / BLOOD UREA NITROGEN / CARBON DIOXIDE / CHOLESTEROL / CREATINE PHOSPHOKINASE / CREATININE / GLUCOSE / LACTATE DEHYDROGENASE / LIPASE / PHOSPHORUS / POTASSIUM / SODIUM / TOTAL BILIRUBIN / TOTAL PROTEIN / URIC ACID: tissue Plasma
[1] = 0 mg/kg, 72 h, dose level Control, time 3 day
[2] = 0 mg/kg, 120 h, dose level Control, time 5 day
[3] = 18 mg/kg, 72 h, dose level High, time 3 day

## N=C(N)c1ccc(OCCCCCOc2ccc(C(=N)N)cc2)cc1 [PENTAMIDINE]
[1]
  ABSOLUTE BASOPHIL: 0 CELLS/uL
  ABSOLUTE EOSINOPHIL: 193.5 CELLS/uL
  ABSOLUTE LYMPHOCYTE: 15717.5 CELLS/uL
  ABSOLUTE MONOCYTE: 389.33 CELLS/uL
  ABSOLUTE SEGMENTED NEUTROPHIL: 1883 CELLS/uL
  BASOPHIL: 0%
  EOSINOPHIL: 1.17%
  ERYTHROCYTE COUNT: 5.68 x10E6/uL
  HEMATOCRIT: 35.83%
  HEMOGLOBIN: 13.48 G/DL
  LEUKOCYTE COUNT: 18.18 x10E3/uL
  LYMPHOCYTE: 86.67%
  MEAN CORPUSCULAR HEMOGLOBIN: 23.8 pg
  MEAN CORPUSCULAR HEMOGLOBIN CONCENTRATION: 37.68 G/DL
  MEAN CORPUSCULAR VOLUME: 63.27 fL
  MONOCYTE: 2.17%
  NEUTROPHIL: 10%
  NUCLEATED RED BLOOD CELLS: 0 /100WBC
  PLATELET COUNT: 1186.33 x10E3/uL
  ALANINE AMINOTRANSFERASE: 68.5 u/L
  ALBUMIN: 4.37 G/DL
  ALKALINE PHOSPHATASE: 396.33 u/L
  ASPARTATE AMINOTRANSFERASE: 92.5 u/L
  BLOOD UREA NITROGEN: 18 mg/dL
  CARBON DIOXIDE: 24.33 mmol/L
  CHOLESTEROL: 67.17 mg/dL
  CREATINE PHOSPHOKINASE: 378.67 u/L
  CREATININE: 0.19 mg/dL
  GLUCOSE: 178.33 mg/dL
  LACTATE DEHYDROGENASE: 245.17 u/L
  LIPASE: 9.2 u/L
  PHOSPHORUS: 12.37 mg/dL
  POTASSIUM: 6.48 MEQ/L
  SODIUM: 143.28 MEQ/L
  TOTAL BILIRUBIN: 0.23 mg/dL
  TOTAL PROTEIN: 5.65 G/DL
  URIC ACID: 1.6 mg/dL
[2]
  ABSOLUTE BASOPHIL: 0 CELLS/uL
  ABSOLUTE EOSINOPHIL: 27.5 CELLS/uL
  ABSOLUTE LYMPHOCYTE: 13593.17 CELLS/uL
  ABSOLUTE MONOCYTE: 576 CELLS/uL
  ABSOLUTE SEGMENTED NEUTROPHIL: 1836.67 CELLS/uL
  BASOPHIL: 0%
  EOSINOPHIL: 0.17%
  ERYTHROCYTE COUNT: 5.99 x10E6/uL
  HEMATOCRIT: 37.42%
  HEMOGLOBIN: 13.78 G/DL
  LEUKOCYTE COUNT: 16.03 x10E3/uL
  LYMPHOCYTE: 85.17%
  MEAN CORPUSCULAR HEMOGLOBIN: 23.08 pg
  MEAN CORPUSCULAR HEMOGLOBIN CONCENTRATION: 36.83 G/DL
  MEAN CORPUSCULAR VOLUME: 62.6 fL
  MONOCYTE: 3.5%
  NEUTROPHIL: 11.17%
  NUCLEATED RED BLOOD CELLS: 0 /100WBC
  PLATELET COUNT: 1352.5 x10E3/uL
  ALANINE AMINOTRANSFERASE: 49.83 u/L
  ALBUMIN: 4.25 G/DL
  ALKALINE PHOSPHATASE: 331.33 u/L
  ASPARTATE AMINOTRANSFERASE: 86.17 u/L
  BLOOD UREA NITROGEN: 19.5 mg/dL
  CARBON DIOXIDE: 26.67 mmol/L
  CHOLESTEROL: 67.5 mg/dL
  CREATINE PHOSPHOKINASE: 346.17 u/L
  CREATININE: 0.22 mg/dL
  GLUCOSE: 170.67 mg/dL
  LACTATE DEHYDROGENASE: 405.5 u/L
  LIPASE: 8.83 u/L
  PHOSPHORUS: 11.3 mg/dL
  POTASSIUM: 6.06 MEQ/L
  SODIUM: 143.4 MEQ/L
  TOTAL BILIRUBIN: 0.17 mg/dL
  TOTAL PROTEIN: 6.22 G/DL
  URIC ACID: 1.63 mg/dL
[3]
  ABSOLUTE BASOPHIL: 0 CELLS/uL
  ABSOLUTE EOSINOPHIL: 160 CELLS/uL
  ABSOLUTE LYMPHOCYTE: 13847.33 CELLS/uL
  ABSOLUTE MONOCYTE: 361.33 CELLS/uL
  BASOPHIL: 0%
  EOSINOPHIL: 1%
  ERYTHROCYTE COUNT: 5.86 x10E6/uL
  HEMATOCRIT: 36.7%
  HEMOGLOBIN: 13.8 G/DL
  LEUKOCYTE COUNT: 15.4 x10E3/uL
  LYMPHOCYTE: 90%
  MEAN CORPUSCULAR HEMOGLOBIN: 23.57 pg
  MEAN CORPUSCULAR HEMOGLOBIN CONCENTRATION: 37.6 G/DL
  MEAN CORPUSCULAR VOLUME: 62.63 fL
  MONOCYTE: 2.33%
  NEUTROPHIL: 6.67%
  NUCLEATED RED BLOOD CELLS: 0 /100WBC
  PLATELET COUNT: 1444.67 x10E3/uL
  ALANINE AMINOTRANSFERASE: 52 u/L
  ALBUMIN: 4.13 G/DL
  ALKALINE PHOSPHATASE: 303.67 u/L
  ASPARTATE AMINOTRANSFERASE: 79 u/L
  BLOOD UREA NITROGEN: 19 mg/dL
  CARBON DIOXIDE: 26.67 mmol/L
  CHOLESTEROL: 75.33 mg/dL
  CREATINE PHOSPHOKINASE: 308.67 u/L
  CREATININE: 0.22 mg/dL
  GLUCOSE: 158.33 mg/dL
  LACTATE DEHYDROGENASE: 129.67 u/L
  LIPASE: 8.67 u/L
  PHOSPHORUS: 11.17 mg/dL
  POTASSIUM: 6.46 MEQ/L
  SODIUM: 142 MEQ/L
  TOTAL BILIRUBIN: 0.23 mg/dL
  TOTAL PROTEIN: 6.13 G/DL
  URIC ACID: 1.7 mg/dL
